Experimental data: ChEMBL document CHEMBL5154740, “Novel Aurora A and Protein Kinase C (α, β1, β2, and θ) Multitarget Inhibitors: Impact of Selenium Atoms on the Potency and Selectivity” (J Med Chem, 2022)
Activity calls are given as the source filed them.

How the values were obtained:
MDA-MB-231 = test: Inhibition of clonogenicity in human MDA-MB-231/M cells assessed as reduction in colony formation incubated for 7 days by crystal violet staining based analysis; assay type: functional, cell-based; settings: time 7.0 day
4T1 [1] = test: Antitumor activity against mouse 4T1 cells xenografted in BALB/c mouse assessed as tumor growth inhibition at 10 mg/kg, po administered 3 times a week for 30 days; assay type: functional, organism-based; settings: time 30.0 day
4T1 [2] = test: Anti-metastasis activity in mouse 4T1 cells xenografted in BALB/c mouse assessed as lung metastases at 10 mg/kg, po administered 3 times a week for 30 days; assay type: functional, organism-based; settings: time 30.0 day

O=c1c2ccccc2[se]n1-c1nc(N[C@H]2CC[Se]C2)c2nc[nH]c2n1
active: inhibition (MDA-MB-231) | Activity (4T1 [1]) | Activity (4T1 [2])
